Like-named read-outs stand apart in the source and are kept apart here.
Assays:
[1] = test system: breast cancer cell line T-47D; assay: Cell growth assay with breast cancer cell line T-47D; format: cell-based; details: T-47D cells, PrestoBlue Cell Viability reagent, read-out: IC50 inhibition of cell growth
Method: […] of the complete medium was then gently dispersed over the surface of the cell layer for several times. The cell concentration was adjusted to 1×10^4 cells/mL with the complete medium. A 100 μL aliquot of the cell suspension was added to the well of a 96-well plate, and the plate was incubated overnight at 37° C. under 5% CO2 with saturated humidity. On the next day, the medium in each well was aspirated and replaced with a 100 μL aliquot of pre-warmed complete medium at 37° C. in the presence or absence of the test compounds at various concentrations from 0-100 μM. The test compounds were dissolved in DMSO, and the final DMSO concentration in the cell culture was no more than 1%. The plate was incubated for 72 hours at 37° C. under 5% CO2 with saturated humidity. At end of the cell culture a 10 μL aliquot of PrestoBlue® Cell Viability reagent (ThermoFisher Scientific) was added into the well and the plate was incubated at 37° C. for 30 min. The absorption at 570 and 600 nm were measured with a SpectraMax Microplate reader (Molecular Devices), The absorbance at […] was normalized to that at 600 nm.

[2] = target: T1, KIT(T670I) (Homo sapiens, UniProt P10721, T670I); assay: Off-chip Mobility Shift Assay (MSA) kinase inhibition; format: biochemical; details: inhibitor concentration 0.01 μM
T1 construct: purchased Carna Biosciences
Method: (§1) Off-chip Mobility Shift Assay (MSA) by Cama Biosciences, Inc (Natick, Mass.) a used for measuring the kinase activity and inhibition. • 1) The 5 μL of x4 compound solution, 5 μL of x4 Substrate/ATP/Metal solution, and 10 μL of x2 kinase solution were prepared with assay buffer (20 mM HEPES, 0.01% Triton X100, 2 mM DTT, pH 7.5) and mixed and incubated in a well of polypropylene 384 well microplate for 1 or 5 hour(s)* at room temperature.

[3] = target: T2, BRAF(V600E) (Homo sapiens, UniProt P15056, V600E); assay: as above; format: biochemical; details: inhibitor concentration 0.01 μM
T2 construct: purchased Carna Biosciences
Method: as §1

[4] = target: T3, BRAF (Homo sapiens, UniProt P15056); assay: as above; format: biochemical; details: inhibitor concentration 0.01 μM
T3 construct: purchased Carna Biosciences
Method: as §1

[5] = target: T4, JAK3 (Homo sapiens, UniProt P52333); assay: as above; format: biochemical; details: inhibitor concentration 0.01 μM
T4 construct: purchased Carna Biosciences
T4 sequence (P52333 1-1124): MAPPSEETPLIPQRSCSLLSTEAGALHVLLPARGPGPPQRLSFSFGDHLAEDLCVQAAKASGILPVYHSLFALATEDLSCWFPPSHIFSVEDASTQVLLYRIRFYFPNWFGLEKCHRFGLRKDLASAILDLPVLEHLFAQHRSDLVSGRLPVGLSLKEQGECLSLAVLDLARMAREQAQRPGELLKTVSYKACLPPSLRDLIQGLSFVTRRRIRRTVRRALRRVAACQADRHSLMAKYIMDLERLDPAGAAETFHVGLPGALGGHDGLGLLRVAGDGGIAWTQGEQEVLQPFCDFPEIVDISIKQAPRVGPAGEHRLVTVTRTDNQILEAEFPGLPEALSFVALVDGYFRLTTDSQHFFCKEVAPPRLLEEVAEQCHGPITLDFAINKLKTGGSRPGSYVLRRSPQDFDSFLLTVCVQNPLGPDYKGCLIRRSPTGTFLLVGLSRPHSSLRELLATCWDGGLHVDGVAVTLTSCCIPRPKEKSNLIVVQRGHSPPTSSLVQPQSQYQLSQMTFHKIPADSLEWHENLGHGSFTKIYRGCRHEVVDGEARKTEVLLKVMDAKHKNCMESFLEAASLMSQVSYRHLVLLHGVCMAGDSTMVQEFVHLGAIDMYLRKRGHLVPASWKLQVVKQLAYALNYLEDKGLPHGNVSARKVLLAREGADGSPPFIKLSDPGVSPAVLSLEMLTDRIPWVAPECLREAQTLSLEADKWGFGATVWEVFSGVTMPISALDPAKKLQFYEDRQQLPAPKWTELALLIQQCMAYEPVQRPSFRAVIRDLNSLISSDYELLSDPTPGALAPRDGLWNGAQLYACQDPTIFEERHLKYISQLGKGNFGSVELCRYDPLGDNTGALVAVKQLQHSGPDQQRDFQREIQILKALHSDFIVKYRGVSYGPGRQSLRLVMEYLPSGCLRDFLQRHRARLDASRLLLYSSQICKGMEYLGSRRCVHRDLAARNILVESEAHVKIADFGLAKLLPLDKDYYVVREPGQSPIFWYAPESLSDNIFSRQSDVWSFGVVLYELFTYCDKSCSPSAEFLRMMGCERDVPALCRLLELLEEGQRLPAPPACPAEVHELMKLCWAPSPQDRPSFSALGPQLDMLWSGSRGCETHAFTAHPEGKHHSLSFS
Method: as §1

[6] = target: T5, JAK2 (Homo sapiens, UniProt O60674); assay: as above; format: biochemical; details: inhibitor concentration 0.01 μM
T5 construct: purchased Carna Biosciences
Method: as §1

[7] = target: T6, KIT(V560G) (Homo sapiens, UniProt P10721, V560G); assay: as above; format: biochemical; details: inhibitor concentration 0.01 μM
T6 construct: purchased Carna Biosciences
Method: as §1

[8] = target: T7, PDGFRβ (Homo sapiens, UniProt P09619); assay: as above; format: biochemical; details: inhibitor concentration 0.01 μM
T7 construct: purchased Carna Biosciences
Method: as §1

[9] = target: T8, BRK (Homo sapiens, UniProt Q13882); assay: as above; format: biochemical; details: inhibitor concentration 0.01 μM
T8 construct: purchased Carna Biosciences
Method: as §1

[10] = target: T9, RAF1 (Homo sapiens, UniProt P04049); assay: as above; format: biochemical; details: inhibitor concentration 0.01 μM
T9 construct: purchased Carna Biosciences
Method: as §1

[11] = target: T10, PDGFRα (Homo sapiens, UniProt P16234); assay: as above; format: biochemical; details: inhibitor concentration 0.01 μM
T10 construct: purchased Carna Biosciences
Method: as §1

[12] = target: T11, KIT(D816V) (Homo sapiens, UniProt P10721, D816V); assay: as above; format: biochemical; details: inhibitor concentration 0.01 μM
T11 construct: purchased Carna Biosciences
Method: as §1

[13] = target: T12, FGR (Homo sapiens, UniProt P09769); assay: as above; format: biochemical; details: inhibitor concentration 0.01 μM
T12 construct: purchased Carna Biosciences
Method: as §1

[14] = target: T13, LCK (Homo sapiens, UniProt P06239); assay: as above; format: biochemical; details: inhibitor concentration 0.01 μM
T13 construct: purchased Carna Biosciences
Method: as §1

[15] = target: T14, SRC (Homo sapiens, UniProt P12931); assay: as above; format: biochemical; details: inhibitor concentration 0.01 μM
T14 construct: purchased Carna Biosciences
Method: as §1

[16] = target: T15, KIT (Homo sapiens, UniProt P10721); assay: as above; format: biochemical; details: inhibitor concentration 0.01 μM
T15 construct: purchased Carna Biosciences
Method: as §1

[17] = target: T16, JAK1 (Homo sapiens, UniProt P23458); assay: as above; format: biochemical; details: inhibitor concentration 0.01 μM
T16 construct: purchased Carna Biosciences
Method: as §1

[18] = target: T17, SRM (Homo sapiens, UniProt Q9H3Y6); assay: as above; format: biochemical; details: inhibitor concentration 0.01 μM
T17 construct: purchased Carna Biosciences
Method: as §1

[19] = target: T18, PDGFRα(V561D) (Homo sapiens, UniProt P16234, V561D); assay: as above; format: biochemical; details: inhibitor concentration 0.01 μM
T18 construct: purchased Carna Biosciences
Method: (§2) Off-chip Mobility Shift Assay (MSA) by Cama Biosciences, Inc (Natick, Mass.) a used for measuring the kinase activity and inhibition. • 1) The 5 μL of x4 compound solution, 5 μL of x4 Substrate/ATP/Metal solution, and 10 μL of x2 kinase solution were prepared with assay buffer (20 mM HEPES, 0.01% Triton X100, 2 mM DTT, pH 7.5) and mixed and incubated in a well of polypropylene 384 well microplate for 1 or 5 hour(s)* at room temperature. (*; depending on kinase) • 2) 70 μL of Termination Buffer (QuickScout Screening Assist A; Cama Biosciences) was added to the welt • 3) The reaction mixture was applied to LabChip system (Perkin Elmer), and the product and substrate peptide peaks were separated and quantitated. • 4) The kinase reaction was evaluated by the product ratio calculated from peak heights of product (P) and substrate (S) peptides (P/(P+S)). • 5) The reaction conditions were followed according to assay protocols of Ca n Biosciences, Inc (BMA 3F, 1-5-5 Minatojima-Minamimachi, Chuo-ku, Kobe 650-0047, Japan; www.carnabio.com). • 6 Data analysis: The readout value of reaction control (complete reaction mixture) was set as a 0% inhibition, and the readout value of background (Enzyme (−)) was set as a 100% inhibition, then the percent inhibition of each test solution was calculated, […]

[20] = target: T19, PDGFRα(D842V) (Homo sapiens, UniProt P16234, D842V); assay: as above; format: biochemical; details: inhibitor concentration 0.01 μM
T19 construct: purchased Carna Biosciences
Method: as §2

[21] = target: T20, PDGFRα(T674I) (Homo sapiens, UniProt P16234, T674I); assay: as above; format: biochemical; details: inhibitor concentration 0.01 μM
T20 construct: purchased Carna Biosciences
Method: as §2

T3 sequence (P15056 whole entry): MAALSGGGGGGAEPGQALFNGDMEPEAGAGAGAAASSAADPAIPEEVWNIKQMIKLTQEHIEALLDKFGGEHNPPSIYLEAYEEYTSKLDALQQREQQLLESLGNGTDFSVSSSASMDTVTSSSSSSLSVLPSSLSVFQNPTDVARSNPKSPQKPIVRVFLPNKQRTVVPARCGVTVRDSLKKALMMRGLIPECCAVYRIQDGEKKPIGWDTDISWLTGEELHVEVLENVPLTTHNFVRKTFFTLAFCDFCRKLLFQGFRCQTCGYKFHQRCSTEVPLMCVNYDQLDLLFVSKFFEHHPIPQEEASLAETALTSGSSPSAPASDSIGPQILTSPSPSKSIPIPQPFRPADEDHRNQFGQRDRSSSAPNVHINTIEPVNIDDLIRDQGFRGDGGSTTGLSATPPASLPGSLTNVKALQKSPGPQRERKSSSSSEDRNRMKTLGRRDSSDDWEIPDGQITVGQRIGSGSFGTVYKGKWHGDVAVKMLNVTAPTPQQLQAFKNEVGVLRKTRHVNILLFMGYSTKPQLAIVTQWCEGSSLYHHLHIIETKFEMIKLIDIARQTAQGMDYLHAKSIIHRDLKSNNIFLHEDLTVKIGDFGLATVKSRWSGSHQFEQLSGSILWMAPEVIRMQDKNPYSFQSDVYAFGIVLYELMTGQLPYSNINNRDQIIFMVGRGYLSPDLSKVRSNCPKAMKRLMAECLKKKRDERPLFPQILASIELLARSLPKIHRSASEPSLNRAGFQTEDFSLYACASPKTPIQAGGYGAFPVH
T15 sequence (P10721 26-976): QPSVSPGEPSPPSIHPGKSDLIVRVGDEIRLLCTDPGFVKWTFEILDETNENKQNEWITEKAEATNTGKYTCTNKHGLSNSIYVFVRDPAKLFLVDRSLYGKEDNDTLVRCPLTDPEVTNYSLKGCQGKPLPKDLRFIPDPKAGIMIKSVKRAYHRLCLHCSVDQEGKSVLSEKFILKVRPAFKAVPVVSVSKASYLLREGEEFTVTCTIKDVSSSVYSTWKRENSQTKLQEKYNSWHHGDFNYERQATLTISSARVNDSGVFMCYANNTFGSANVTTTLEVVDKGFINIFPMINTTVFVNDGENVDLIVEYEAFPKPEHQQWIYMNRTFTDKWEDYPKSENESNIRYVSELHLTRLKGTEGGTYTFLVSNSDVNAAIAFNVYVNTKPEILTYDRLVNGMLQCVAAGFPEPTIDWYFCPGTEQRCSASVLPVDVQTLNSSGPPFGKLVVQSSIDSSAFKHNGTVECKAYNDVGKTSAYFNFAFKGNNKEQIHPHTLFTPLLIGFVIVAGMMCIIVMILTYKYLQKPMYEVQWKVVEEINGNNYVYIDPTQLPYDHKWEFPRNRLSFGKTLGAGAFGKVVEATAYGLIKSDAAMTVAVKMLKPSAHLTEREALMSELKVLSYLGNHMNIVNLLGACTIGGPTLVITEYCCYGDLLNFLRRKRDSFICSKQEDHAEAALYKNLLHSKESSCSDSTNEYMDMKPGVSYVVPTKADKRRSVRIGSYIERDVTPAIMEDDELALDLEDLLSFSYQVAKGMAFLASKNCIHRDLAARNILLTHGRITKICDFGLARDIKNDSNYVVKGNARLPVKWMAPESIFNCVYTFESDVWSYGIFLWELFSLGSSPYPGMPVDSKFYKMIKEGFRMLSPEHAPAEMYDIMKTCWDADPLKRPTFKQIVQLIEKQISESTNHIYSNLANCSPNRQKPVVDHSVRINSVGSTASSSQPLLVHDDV
T13 sequence (P06239 whole entry): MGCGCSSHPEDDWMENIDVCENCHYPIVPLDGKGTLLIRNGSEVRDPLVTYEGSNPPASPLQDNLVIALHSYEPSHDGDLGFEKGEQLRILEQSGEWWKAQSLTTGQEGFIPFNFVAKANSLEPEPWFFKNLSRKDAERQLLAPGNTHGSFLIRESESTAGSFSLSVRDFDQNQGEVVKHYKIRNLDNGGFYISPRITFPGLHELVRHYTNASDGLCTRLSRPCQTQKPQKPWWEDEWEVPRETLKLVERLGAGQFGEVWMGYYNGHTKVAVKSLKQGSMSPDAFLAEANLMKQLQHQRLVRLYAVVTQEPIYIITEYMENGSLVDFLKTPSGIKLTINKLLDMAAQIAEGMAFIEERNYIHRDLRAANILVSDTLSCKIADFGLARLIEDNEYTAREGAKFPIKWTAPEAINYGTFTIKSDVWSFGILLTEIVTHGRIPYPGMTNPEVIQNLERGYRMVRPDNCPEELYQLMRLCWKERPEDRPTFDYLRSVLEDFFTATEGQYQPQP
T5 sequence (O60674 whole entry): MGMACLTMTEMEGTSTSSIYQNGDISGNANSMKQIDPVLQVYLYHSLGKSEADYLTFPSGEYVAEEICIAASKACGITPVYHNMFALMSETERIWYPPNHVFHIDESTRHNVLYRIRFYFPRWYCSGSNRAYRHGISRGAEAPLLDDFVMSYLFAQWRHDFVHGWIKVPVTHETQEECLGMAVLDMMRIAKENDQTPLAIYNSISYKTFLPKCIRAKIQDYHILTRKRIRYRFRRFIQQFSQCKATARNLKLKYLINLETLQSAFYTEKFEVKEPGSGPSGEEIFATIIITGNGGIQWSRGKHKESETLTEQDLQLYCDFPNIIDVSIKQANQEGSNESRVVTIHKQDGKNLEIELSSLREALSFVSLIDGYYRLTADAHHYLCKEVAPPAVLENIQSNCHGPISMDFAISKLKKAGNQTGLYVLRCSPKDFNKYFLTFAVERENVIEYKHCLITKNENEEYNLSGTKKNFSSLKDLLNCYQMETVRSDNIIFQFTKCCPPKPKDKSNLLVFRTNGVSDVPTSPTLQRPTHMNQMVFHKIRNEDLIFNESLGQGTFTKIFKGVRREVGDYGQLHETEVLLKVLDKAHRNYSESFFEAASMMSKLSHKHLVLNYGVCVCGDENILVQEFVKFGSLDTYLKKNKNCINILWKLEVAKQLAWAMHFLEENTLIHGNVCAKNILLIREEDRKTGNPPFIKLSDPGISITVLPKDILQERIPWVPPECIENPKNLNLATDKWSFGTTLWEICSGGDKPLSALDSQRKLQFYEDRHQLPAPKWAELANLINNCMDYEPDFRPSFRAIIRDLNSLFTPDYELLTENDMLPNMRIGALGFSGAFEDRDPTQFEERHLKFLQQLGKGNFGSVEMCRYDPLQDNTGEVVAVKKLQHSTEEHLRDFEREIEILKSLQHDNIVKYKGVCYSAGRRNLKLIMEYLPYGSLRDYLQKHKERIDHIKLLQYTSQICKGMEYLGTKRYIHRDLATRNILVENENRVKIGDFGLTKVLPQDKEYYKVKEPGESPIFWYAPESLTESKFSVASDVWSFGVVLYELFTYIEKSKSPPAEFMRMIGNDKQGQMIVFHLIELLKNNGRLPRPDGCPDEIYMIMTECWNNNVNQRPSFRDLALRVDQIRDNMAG
T19 sequence (P16234 24-1089 D842V): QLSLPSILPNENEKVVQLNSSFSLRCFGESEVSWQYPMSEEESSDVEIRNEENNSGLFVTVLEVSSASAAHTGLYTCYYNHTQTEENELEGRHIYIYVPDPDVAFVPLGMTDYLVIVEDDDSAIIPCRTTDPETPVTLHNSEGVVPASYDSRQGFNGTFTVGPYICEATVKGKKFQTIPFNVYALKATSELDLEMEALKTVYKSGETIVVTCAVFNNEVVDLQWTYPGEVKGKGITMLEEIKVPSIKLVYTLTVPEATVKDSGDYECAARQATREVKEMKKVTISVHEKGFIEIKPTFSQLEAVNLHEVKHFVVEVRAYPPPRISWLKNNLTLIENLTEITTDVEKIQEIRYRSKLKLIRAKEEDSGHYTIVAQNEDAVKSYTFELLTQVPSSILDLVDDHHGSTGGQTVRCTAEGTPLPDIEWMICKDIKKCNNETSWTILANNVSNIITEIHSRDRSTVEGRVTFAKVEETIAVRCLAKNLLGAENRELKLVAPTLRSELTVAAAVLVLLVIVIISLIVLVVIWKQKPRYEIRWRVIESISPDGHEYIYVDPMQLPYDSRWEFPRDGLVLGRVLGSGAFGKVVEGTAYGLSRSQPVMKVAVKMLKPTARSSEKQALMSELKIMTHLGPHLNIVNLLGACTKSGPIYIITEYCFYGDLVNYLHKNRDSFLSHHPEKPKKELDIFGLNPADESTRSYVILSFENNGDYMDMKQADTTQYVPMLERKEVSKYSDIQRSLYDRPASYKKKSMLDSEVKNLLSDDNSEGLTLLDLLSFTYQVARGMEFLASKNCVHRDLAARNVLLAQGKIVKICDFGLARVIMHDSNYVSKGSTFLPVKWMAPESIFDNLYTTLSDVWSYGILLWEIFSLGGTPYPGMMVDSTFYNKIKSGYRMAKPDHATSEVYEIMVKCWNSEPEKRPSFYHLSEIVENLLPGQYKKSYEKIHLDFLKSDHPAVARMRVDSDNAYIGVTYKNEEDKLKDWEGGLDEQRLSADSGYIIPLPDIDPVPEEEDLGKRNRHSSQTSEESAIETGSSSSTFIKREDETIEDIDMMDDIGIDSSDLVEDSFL
T10 sequence (P16234 24-1089): as the sequence (P16234 24-1089 D842V) above, with V819D counted along it
T2 sequence (P15056 whole entry V600E): as the sequence (P15056 whole entry) above, with V600E counted along it
T11 sequence (P10721 26-976 D816V): as the sequence (P10721 26-976) above, with D791V counted along it
T20 sequence (P16234 24-1089 T674I): as the sequence (P16234 24-1089 D842V) above, with T651I, V819D counted along it
T6 sequence (P10721 26-976 V560G): as the sequence (P10721 26-976) above, with V535G counted along it
T18 sequence (P16234 24-1089 V561D): as the sequence (P16234 24-1089 D842V) above, with V538D, V819D counted along it
T1 sequence (P10721 26-976 T670I): as the sequence (P10721 26-976) above, with T645I counted along it

Row | inhibition at 0.01 µM [2] | inhibition at 0.01 µM [3] | inhibition at 0.01 µM [4] | inhibition at 0.01 µM [5] | inhibition at 0.01 µM [6] | inhibition at 0.01 µM [7] | inhibition at 0.01 µM [8] | inhibition at 0.01 µM [9] | inhibition at 0.01 µM [10] | inhibition at 0.01 µM [11] | inhibition at 0.01 µM [12] | inhibition at 0.01 µM [13] | inhibition at 0.01 µM [14] | inhibition at 0.01 µM [15] | inhibition at 0.01 µM [16] | inhibition at 0.01 µM [17] | inhibition at 0.01 µM [18] | inhibition at 0.01 µM [19] | inhibition at 0.01 µM [20] | inhibition at 0.01 µM [21] | SMILES | other results
1 | – | – | – | – | – | – | – | – | – | – | – | – | – | – | – | – | – | – | – | – | O=C(c1c(F)ccc(NS(=O)(=O)CCO)c1F)c1c[nH]c2ncc(-c3ccc(Cl)cc3)cc12 [200-149, N-[3-[5-(4-chlorophenyl)pyrrolo[2,3-b]pyridine-3-carbonyl]-2,4-difluorophenyl]-2-hydroxyethanesulfonamide] | IC50 ([1]; Homo sapiens, T47D, 72 hours): < 20 µM
2 | < 20% | > 20% | < 20% | < 20% | < 20% | < 20% | < 20% | > 20% | > 20% | < 20% | < 20% | < 20% | > 20% | < 20% | < 20% | < 20% | > 20% | < 20% | < 20% | < 20% | COCCCS(=O)(=O)Nc1ccc(F)c(C(=O)c2c[nH]c3ncc(-c4ccc(Cl)cc4)cc23)c1F [200-123, N-[3-[5-(4-chlorophenyl)pyrrolo[2,3-b]pyridine-3-carbonyl]-2,4-difluoro-phenyl]-3-methoxypropane-1-sulfonamide] | IC50 ([1]; Homo sapiens, T47D, 72 h): < 20 µM
3 | < 20% | < 20% | < 20% | < 20% | < 20% | < 20% | < 20% | > 20% | > 20% | > 20% | < 20% | < 20% | > 20% | < 20% | < 20% | < 20% | > 20% | < 20% | < 20% | < 20% | COCCS(=O)(=O)Nc1ccc(F)c(C(=O)c2c[nH]c3ncc(-c4ccc(Cl)cc4)cc23)c1F [200-139, N-[3-[5-(4-chlorophenyl)pyrrolo[2,3-b]pyridine-3-carbonyl]-2,4-difluorophenyl]-2-methoxyethanesulfonamide] | IC50 ([1]; Homo sapiens, T47D, 72 h): < 20 µM
4 | > 30% | > 30% | > 30% | > 30% | > 30% | > 30% | > 20% | > 30% | > 30% | > 20% | > 30% | > 30% | > 30% | > 30% | > 30% | > 30% | > 30% | > 30% | > 30% | > 30% | C/C=C/S(=O)(=O)Nc1ccc(F)c(C(=O)c2c[nH]c3ncc(-c4ccc(Cl)cc4)cc23)c1F [200-93a] | IC50 ([1]; 72 hours): > 20 µM
